pIC50: −log10 of the molar value.
Legend:
[1] = tested on: SMAD signaling triggered by myostatin; assay: Myostatin-triggered SMAD signaling in RDSR cells; type: cell-based; conditions: Homo sapiens, 50 ng/ml myostatin, 24 h
Procedure: To determine the ability of compounds to inhibit the SMAD signaling triggered by myostatin, and therefore possibly help alleviate cachexia in cancer patients, the following assay was performed. The RD cell line, a human rhabdomyosarcoma cell line, was purchased from ATCC (CCL-136) and a stably SMAD reporter plasmid (Promega, pGL4.48[luc2P/SBE/Hygro]) was introduced to create the RD SMAD Reporter (RDSR) cell line. Twenty thousand RDSR cells were seeded into a 96-well plate (Greiner bio-one 655083) in DMEM media supplemented with 10% fetal bovine serum. Cells were pre-incubated with selected compounds at various concentrations (8-point curve ranging from 10 micromolar to 610 picomolar) for one hour, then were stimulated with 50 nanograms per milliliter myostatin (R&D, 788-G8-010) for twenty-four hours. The luciferase signal was then read out with One-Glo substrate on the Envision plate reader.

JAK signaling = assay: JAK selectivity assay, HEK blue IL-12 reporter; type: cell-based; conditions: HEK-Blue, 24 h, 12.5 ng/ml IL-12, 24 h
Procedure: The cells were purchased from Invivogen (Catalog Nr: hkb-il12) and maintained according to vendor instructions. On the day of the experiment, cells were harvested by repeated tapping of the flask to shake loose the cells attached to the bottom of the flask. Then, cells were harvested, washed and resuspended in DMEM media supplemented with 10% fetal calf serum. 30 Microliters of cell suspension was seeded into a 384-well tissue culture-coated plate containing approximately 10,000 total cells. […] Using the ECHO “Dose Response” software, the test compound was added in duplicate wells with a 3-fold dilution curve. DMSO was back-filled to normalize the DMSO across all wells. […] After 30 minutes of incubation at room temperature, the optical density was measured at 620 nanometer using the Perkin Elmer Envision plate reader. A color change can be detected at this wavelength when secreted alkaline phosphatase, which is triggered by IL-12 signaling, is present in the supernatant. […]

[2] = tested on: BMP-6/ALK2/Hepcidin pathway; assay: ALK2 off-target assay, hepcidin mRNA in HepG2 hepatocytes; type: cell-based, human; conditions: Homo sapiens; HepG2, 40 ng/ml BMP-6, 3 h; read-out: IC50, hepcidin mRNA expression
Procedure: In this study, LDN214117 (an ALK2 inhibitor available from Selleck Chemicals S7627) was included as a positive control, and vactosertib (an ALK5 inhibitor available from MedChem Express HY-19928) was included as a negative control.
HepG2 human hepatocytes (ATCC HB-8065) were seeded in EMEM (ATCC30-2003)+10% FBS in 96-well plate and allowed to grow overnight at 5% CO2 at 37° C. The next day, cells were pre-treated with selected compounds (Compound 01, 04 or 05) or one of the control compounds at various concentrations, or with vehicle (DMSO) for one hour. Cells were then stimulated with recombinant human BMP-6 (R&D Systems 507-BP-020) at a final concentration of 40 ng/ml, in the presence of test compound or DMSO for three hours. A no-BMP-6 stimulation condition was included for baseline hepcidin level measurement.
Hepcidin mRNA expression was measured by real-time RT-PCR with Cells-to-CT 1-Step TaqMan Kit (ThermoFisher A25603) following manufacturer's instructions. GAPDH levels were measured, and served as a normalization control. Hepcidin primer: TaqMan HAMP-FAM/MGB 20×(ThermoFisher 4331182); GAPDH primer: TaqMan GAPDH-VIC/MGB 20×(ThermoFisher 4326317E). Delta-delta Ct method was used to obtain relative Hepcidin expression.
The selected compounds and control compounds LDN214117 and vactosertib were tested at drug concentrations of 20 micromolar to 1.22 nanomolar at 4-fold serial dilution. All wells contained the same DMSO concentrations. IC50 values were calculated using nonlinear regression model with GraphPad Prism software. The results of the ALK-2 off-target assay are reported in Table 3B, where “++” indicates 0.1 μM<IC50≤1 μM and “+++” indicates […].

| Structure (SMILES) | pIC50 [1] | pIC50 (JAK signaling) | pIC50 [2] |
| --- | --- | --- | --- |
| Cc1cccc(-c2[nH]c(CNc3ccccc3F)nc2-c2ccc3ncnn3c2)n1 [Vactosertib, vactosertib, reference compound] | 7.79 | 4.73 | ≤ 6.00 |
| Cc1cccc2c(Nc3ccnc(Nc4ccc(N5CCOCC5)cc4)c3)cnnc12 [Compound 05, N4-(8-methylcinnolin-4-yl)-N2-[4-(morpholin-4-yl)phenyl]pyridine-2,4-diamine] | – | – | 6.00 to 7.00 |
| Clc1cccc2c(Nc3ccnc(Nc4cccc(N5CCOCC5)c4)c3)cnnc12 [Compound 04, N4-(8-chlorocinnolin-4-yl)-N2-[3-(morpholin-4-yl)phenyl]pyridine-2,4-diamine] | 7.72 | 5.43 | 6.00 to 7.00 |
| Cc1nn(CC(F)(F)F)cc1Nc1cc(Nc2cnnc3c(C)cccc23)ccn1 [Compound 01, N2-[3-methyl-1-(2,2,2-trifluoroethyl)-1H-pyrazol-4-yl]-N4-(8-methylcinnolin-4-yl)pyridine-2,4-diamine] | 7.24 | 5.42 | ≤ 6.00 |

Reference: US20240197729A1, “ALK-5 Inhibitors and Uses Thereof” (Sumitomo Pharma Oncology, Inc., priority 2021, published 2024)
